# Patent publication US20220265817A1, “THERAPEUTIC COMPOSITIONS AND METHODS FOR TREATING HEPATITIS B” (priority 2017, published 2022)
# How the values were obtained:
# hepatitis B virus (HBV) [1] = assay: Mouse model of HBV (pAAV/HBV1.2 hydrodynamic injection), serum HBsAg enzyme immunoassay; type: in vivo, C3H/HeN mice; details: HBV siRNA 1 mg/kg IV Days 0, 7, 14, poly(I:C) 20 μg HDI Day 0, mean ± SEM
# Excerpt: A mouse model of hepatitis B virus (HBV) was used to assess the anti-HBV effects of an immune stimulant and HBV-targeting siRNAs, both as independent treatments and in combination with each other.
# (§1) This plasmid carries a 1.2-fold overlength copy of a HBV genome and expresses HBV surface antigen (HBsAg) amongst other HBV products. Serum HBsAg expression in mice was monitored using an enzyme immunoassay. Animals were sorted (randomized) into groups based on serum HBsAg levels such that a) all animals were confirmed to express HBsAg and b) HBsAg group means were similar to each other prior to initiation of treatments.
# Animals were treated with immune stimulant as follows: On Day 0, 20 micrograms of high molecular weight polyinosinic:polycytidylic acid (poly(I:C)) was administered via HDI. Animals were treated with lipid nanoparticle (LNP)-encapsulated HBV-targeting siRNAs as follows: On each of Days 0, 7 & 14, an amount of test article equivalent to 1 mg/kg siRNA was administered intravenously. A negative control group was included as the HBsAg expression level is not completely stable in this mouse model of HBV; the absolute concentration of serum HBsAg generally declines over time in individual animals.
# The effect of the treatments was determined by collecting a small amount of blood on Days 0 (pre-treatment), 3, 7, 14 & 21 and analyzing it for serum HBsAg content. Samples were diluted as appropriate to generate values within the assay range of quantitation where possible. Individual values falling below the lower limit of quantitation (LLOQ) were set as one-half the LLOQ.
# hepatitis B virus (HBV) [2] = assay: Mouse model of HBV (AAV1.2 tail vein injection), serum HBsAg enzyme immunoassay; type: in vivo, C57/B16 mice; details: Compound 20 3.0 mg/kg oral twice daily Days 0-28, HBV siRNA (LNP) 0.3 mg/kg IV Day 0, n=5 (n=4 vehicle + siRNA)
# Experimental: as §1, with “This viral vector contains” for “This plasmid carries”, “of the” for “of a”
# Animals were treated with Compound 20 as follows: Starting on Day 0, a 3.0 mg/kg dosage of Compound 20 was administered orally to animals on a twice-daily frequency for a total of 56 doses between Days 0 and 28. Compound 20 was dissolved in a co-solvent formation for administration. Negative control animals were administered either the co-solvent formulation alone, or were not treated with any test article. Animals were treated with lipid nanoparticle (LNP)-encapsulated HBV-targeting siRNAs as follows: On Day 0, an amount of test article equivalent to 0.3 mg/kg siRNA was administered intravenously. The HBsAg expression levels for each treatment were compared against the Day 0 (pre-dose) values for that group.
# The effect of these treatments was determined by collecting blood on Days 0 (pre-treatment), 7, 14, and 28 and analyzing it for serum HBsAg content.
# HepG2.2.15 cells = assay: HepG2.2.15 cytotoxicity (intracellular ATP, Cell-Titer Glo; microscopy); type: cell-based, human hepatoblastoma HepG2 cells; details: Trial 3, SIRNA-NP μM: 0.0025, 0.00079, 0.00025, 7.9E−05, 2.5E−05, 0
# Experimental: (§2) Untreated positive control samples (0.5% DMSO in media) were included on each plate in multiple wells. Following a 6 day-incubation, media was removed from treated cells for use in an HBsAg chemiluminescence immunoassay (CLIA) (Autobio Diagnostics, Cat No. CL0310-2). An HBsAg standard curve was generated to verify that the levels of HBsAg quantification were within the detection limits of the assay. The remaining inhibitor-treated cells were assessed for cytotoxicity by determination of the intracellular adenosine triphosphate (ATP) using a Cell-Titer Glo reagent (Promega) as per manufacturers instructions and by microscopic analysis of the cells throughout the duration of inhibitor treatment. Cell viability was calculated as a percentage of the untreated positive control wells.
# [3] = system: HBsAg secretion in HepG2.2.15 cells; assay: HepG2.2.15 cell culture system, HBsAg quantitation by CLIA, MacSynergy II; type: cell-based, human hepatoblastoma HepG2 cells; details: for Additive % Inhibition versus negative control: Trial 3, n = 4, SIRNA-NP μM: 0.0025, 0.00079, 0.00025, 7.9E−05, 2.5E−05, 0
# Experimental: In vitro combination studies were conducted using the method of Prichard and Shipman (Prichard M N, and Shipman C Jr., Antiviral Research, 1990, 14 (4-5), 181-205; and Prichard M N, et. al., MacSynergy II). The HepG2.2.15 cell culture system is a cell line derived from human hepatoblastoma HepG2 cells that have been stably transfected with the adw2-subtype HBV genome as previously explained in Sells et al. (Proc. Natl. Acad. Sci. U. S. A, 1987. Vol 84:1005-1009). HepG2.2.15 cells secrete Dane-like viral particles, produce HBV DNA, and also produce the viral proteins, hepatitis B e antigen (HBeAg) and hepatitis B surface antigen (HBsAg).
# To test the compound combinations, HepG2.2.15 (30,000 cells/well) were plated in 96 well tissue-culture treated microtiter plates in RPMI+L-Glutamine medium supplemented with 1% penicillin-streptomycin, 20 μg/mL geneticin (G418), 10% fetal bovine serum, and incubated in a humidified incubator at 37° C. and 5% CO2 overnight. […] […] The microtiter cell plates were incubated for a duration of 6 days in a humidified incubator at 37° C. and 5% CO2.
# as §2
# The plates were read using an EnVision multimode plate reader (PerkinElmer Model 2104). […] The RLU data from the single compound treated cells were analyzed using XL-Fit module in Microsoft Excel to determine EC50 values using a 4-parameter curve fitting algorithm.
compound,measurement,setting,value
polyinosinic:polycytidylic acid [Poly(I:C)],"Serum HBsAg, % of individual pre-treatment baseline (Day 0)","hepatitis B virus (HBV) [1]; Day 3, n=4 or 5",6.1 ± 1.1%
same,"Serum HBsAg, % of individual pre-treatment baseline (Day 0)",hepatitis B virus (HBV) [1]; Day 7,3.5 ± 1.1%
same,"Serum HBsAg, % of individual pre-treatment baseline (Day 0)",hepatitis B virus (HBV) [1]; Day 14,3.9 ± 1.4%
same,"Serum HBsAg, % of individual pre-treatment baseline (Day 0)",hepatitis B virus (HBV) [1]; Day 21,4.7 ± 2.3%
COCCCOc1cc2c(cc1OC)-c1cc(=O)c(C(=O)O)cn1[C@H](C(C)C)C2 [Compound 20],serum HBsAg as percentage of pre-treatment baseline at Day 0 (mean ± SEM),hepatitis B virus (HBV) [2]; D 7,7 ± 1%
same,serum HBsAg as percentage of pre-treatment baseline at Day 0 (mean ± SEM),hepatitis B virus (HBV) [2]; D 14,8 ± 2%
same,serum HBsAg as percentage of pre-treatment baseline at Day 0 (mean ± SEM),hepatitis B virus (HBV) [2]; D 21,7 ± 2%
same,serum HBsAg as percentage of pre-treatment baseline at Day 0 (mean ± SEM),hepatitis B virus (HBV) [2]; D 28,8 ± 2%
COCCCOc1cc2c(cc1OC)-c1cc(=O)c(C(=O)O)cn1[C@H](C(C)C)C2 [Compound 5],Avg % Cell Viability vs control,HepG2.2.15 cells; Compound 5 0.0001 μM,128%
same,Avg % Cell Viability vs control,HepG2.2.15 cells; Compound 5 0.000316 μM,131%
same,Avg % Cell Viability vs control,HepG2.2.15 cells; Compound 5 0.001 μM,141%
same,Avg % Cell Viability vs control,HepG2.2.15 cells; Compound 5 0.00316 μM,127%
same,Avg % Cell Viability vs control,HepG2.2.15 cells; Compound 5 0.1 μM,99%
same,Avg % Cell Viability vs control,HepG2.2.15 cells; Compound 5 1.0E−05 μM,140%
same,Avg % Cell Viability vs control,HepG2.2.15 cells; Compound 5 1.00E−06 μM,131%
same,Avg % Cell Viability vs control,HepG2.2.15 cells; Compound 5 3.16E−06 μM,127%
same,Avg % Cell Viability vs control,HepG2.2.15 cells; Compound 5 3.17E−05 μM,131%
same,EC50,"[3]; HBsAg by CLIA, trial by row: r8 1, r9 2, r10 3, read-out: Compound 5 EC50",2 nM
same,Additive % Inhibition versus negative control,[3]; Compound 5 0.0001 μM,69.99%
same,Additive % Inhibition versus negative control,[3]; Compound 5 0.000316 μM,82.39%
same,Additive % Inhibition versus negative control,[3]; Compound 5 0.001 μM,89.01%
same,Additive % Inhibition versus negative control,[3]; Compound 5 0.00316 μM,90.26%
same,Additive % Inhibition versus negative control,[3]; Compound 5 0.1 μM,86.26%
same,Additive % Inhibition versus negative control,[3]; Compound 5 1.0E−05 μM,46.36%
same,Additive % Inhibition versus negative control,[3]; Compound 5 1.00E−06 μM,22.68%
same,Additive % Inhibition versus negative control,[3]; Compound 5 3.16E−06 μM,34.18%
same,Additive % Inhibition versus negative control,[3]; Compound 5 3.17E−05 μM,56.34%
